Test results from patent US8324173B2, “Peptides useful as dual caspase-2/-6 inhibitors and their biological applications” (Chiesi Farmaceutici S.p.A., priority 2004, dated 2012).
Peptide text beside a SMILES is read from it.

What was measured:
Assay type in all cases: biochemical
[1] = biological target: T1, human recombinant caspase-2 (Homo sapiens, UniProt P42575); assay: In vitro caspase-2 cleavage assay (Ac-VDVAD-AMC substrate); design: key to Group (pattern of caspase-2 inhibition curve): group 1 referred to inhibitors that were relatively more active than VDVAD(SEQ ID NO:9)-based inhibitors against caspase-2 at lower doses, but with similar IC50 values; group 2 referred to VDVAD(SEQ ID NO:9)-based inhibitor with characteristic sigmoid dose-response; group 3 referred to pentapetidic-based inhibitors that were less active than VDVAD(SEQ ID NO:9)-based inhibitors against caspase-2 at lower doses and that exhibited higher IC50; details: for Group (pattern of caspase-2 inhibition curve) / IC50: Table 4; for IC50: 30 min pre-incubation, 2 h at 37° C.
T1 construct: purchased BIOMOL
T1 sequence (P42575 170-333 limits assumed): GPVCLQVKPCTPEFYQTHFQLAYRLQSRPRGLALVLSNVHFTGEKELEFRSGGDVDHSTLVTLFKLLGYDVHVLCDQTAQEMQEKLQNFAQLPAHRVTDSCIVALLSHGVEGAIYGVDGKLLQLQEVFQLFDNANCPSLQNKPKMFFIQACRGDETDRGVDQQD
T1 sequence (P42575 348-452 limits assumed): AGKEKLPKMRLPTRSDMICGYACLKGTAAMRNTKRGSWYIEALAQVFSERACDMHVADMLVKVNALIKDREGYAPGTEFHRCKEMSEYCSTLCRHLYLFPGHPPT
Experimental: Newly designed inhibitors (Ac-LDEAD(SEQ ID NO:7)-CHO, Ac-VDEAD(SEQ ID NO:1)-CHO . . . ) were compared to Ac-VDVAD(SEQ ID NO:9)-CHO in in vitro caspase-2 cleavage assay according to the following protocol (FIG. 8). Human recombinant caspases (25-50 U; QuantiZyme™ Assay System, BIOMOL, Plymouth, Pa., USA) were pre-incubated 30 min with inhibitors (0.005-2 μM) in final 100 μl final assay buffer (50 mM HEPES, pH 7.4, 100 mM NaCl, 0.1% CHAPS, 10 mM DTT, 1 mM EDTA, 10% glycerol) and then mixed with 200 μM of the fluorogenic caspase substrates (BIOMOL) Ac-VDVAD(SEQ ID NO:9)-AMC. An IC50 value corresponding to the concentration that could inhibit 50% of caspase activity was determined from the dose-response sigmoid curve. The cleavage of AMC-based substrates by human recombinant caspases 1-10 was measured after 2 h at 37° C. on a fluorescence microplate reader by monitoring emission at 510 nm upon excitation at 405 nm.

[2] = test system: other caspases; assay: In vitro cleavage assay on panel of human recombinant caspases (cross-reaction); details: at high doses
Experimental: Newly designed inhibitors (Ac-LDEAD(SEQ ID NO:7)-CHO, Ac-VDEAD(SEQ ID NO:1)-CHO) . . . ) were tested against a large panel of caspase (1 to 10) during in vitro cleavage assay according to the following protocol. Human recombinant caspases (25-50 U; Biomol) were pre-incubated 30 min with inhibitors (0.005-2 μM) in final 100 μl final assay buffer (50 mM HEPES, pH 7.4, 100 mM NaCl, 0.1% CHAPS, 10 mM DTT, 1 mM EDTA, 10% glycerol) and then mixed with 200 μM of their specific fluorogenic caspase substrates (BIOMOL) (Ac-YVAD(SEQ ID NO:23)-AMC (caspase-1), Ac-VDVAD(SEQ ID NO:9)-AMC (caspase-2), Ac-DEVD(SEQ ID NO:24)-AMC (caspase-3/-7), Ac-VEID(SEQ ID NO:25)-AMC (caspase-6), Ac-IETD(SEQ ID NO:26)-AMC (caspase-81-10)1Ac-LEHD(SEQ ID NO:27)-AMC (caspase-9). The cleavage of AMC-based substrates by human recombinant caspases 1-10 was measured after 2 h at 37° C. on a fluorescence microplate reader by monitoring emission at 510 nm upon excitation at 405 nm.

[3] = biological target: T2, Human granzyme B (Homo sapiens, UniProt P10144); assay: Granzyme B inhibition assay (Ac-IEPD-pNA); details: 2 μM
T2 construct: purchased Biomol
T2 sequence (P10144 21-247): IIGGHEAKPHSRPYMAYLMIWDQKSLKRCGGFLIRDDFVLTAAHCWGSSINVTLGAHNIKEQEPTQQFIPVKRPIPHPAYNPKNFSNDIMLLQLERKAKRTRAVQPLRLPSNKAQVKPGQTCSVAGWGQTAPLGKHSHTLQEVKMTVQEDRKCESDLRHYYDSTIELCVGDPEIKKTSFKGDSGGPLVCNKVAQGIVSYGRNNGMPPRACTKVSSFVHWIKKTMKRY
Experimental: (§1) Additionally, specificity of newly designed inhibitors was checked against calpains and Granzyme B. Human recombinant calpain I (0.8 U) and rat recombinant calpain II (20 U) (both from Biomol) were pre-incubated 30 min with inhibitors in final 100 μl final assay buffer (50 mM HEPES, pH 7.4, 100 mM NaCl, 0.1% CHAPS, 5 mM CaCl2, 1 mM EDTA, 10% glycerol, 2 mM β-mercaptoethanol) and then mixed with 20 μM of the fluorogenic calpain substrates I or II (Calbiochem), respectively. ALLN and ALLM (1 μM) were internal controls for inhibition. The cleavage of substrates by recombinant enzymes was measured after 2 h at 37° C. on a fluorescence microplate reader by monitoring emission at 460 nm upon excitation at 380 nm for calpain I or emmission at 530 nm upon excitation at 485 nm for calpain II. Human granzyme B (50 U; Biomol) was pre-incubated 10 min with inhibitors in final 100 μl final granzyme assay buffer (Biomol) and then mixed with 400 μM of Ac-IEPD-pNA (Biomol). 3,4 DCIC (1 μM) was used as positive control for inhibition. The cleavage of substrate was measured after 1 h at 37° C. on a spectrophotometer at […]. Ac-IEPD-pNA is DEQ ID NO:29.

[4] = biological target: T3, rat recombinant calpain II (Rattus norvegicus, UniProt Q07009); assay: Calpain II inhibition assay; details: 2 μM
T3 construct: purchased Biomol
T3 sequence (Q07009 1-700): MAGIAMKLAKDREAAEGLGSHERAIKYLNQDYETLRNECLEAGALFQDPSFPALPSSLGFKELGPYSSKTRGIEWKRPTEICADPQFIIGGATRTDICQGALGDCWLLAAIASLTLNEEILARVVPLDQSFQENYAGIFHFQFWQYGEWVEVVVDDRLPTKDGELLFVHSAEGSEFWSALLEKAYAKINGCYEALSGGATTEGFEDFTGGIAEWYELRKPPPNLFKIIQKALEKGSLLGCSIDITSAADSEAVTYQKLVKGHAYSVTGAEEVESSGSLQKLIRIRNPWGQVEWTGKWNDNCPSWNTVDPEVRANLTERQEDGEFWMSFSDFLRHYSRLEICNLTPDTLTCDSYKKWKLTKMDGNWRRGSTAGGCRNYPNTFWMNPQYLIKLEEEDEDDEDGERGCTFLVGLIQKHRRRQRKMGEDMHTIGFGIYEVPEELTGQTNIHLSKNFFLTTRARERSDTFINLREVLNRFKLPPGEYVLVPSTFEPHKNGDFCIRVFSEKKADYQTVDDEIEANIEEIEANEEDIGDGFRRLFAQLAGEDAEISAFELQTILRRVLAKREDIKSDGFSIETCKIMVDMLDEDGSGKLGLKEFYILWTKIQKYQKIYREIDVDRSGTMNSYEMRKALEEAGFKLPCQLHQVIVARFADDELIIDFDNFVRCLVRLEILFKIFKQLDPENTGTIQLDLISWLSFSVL
T3 sequence (Q64537 87-270 partner limits assumed): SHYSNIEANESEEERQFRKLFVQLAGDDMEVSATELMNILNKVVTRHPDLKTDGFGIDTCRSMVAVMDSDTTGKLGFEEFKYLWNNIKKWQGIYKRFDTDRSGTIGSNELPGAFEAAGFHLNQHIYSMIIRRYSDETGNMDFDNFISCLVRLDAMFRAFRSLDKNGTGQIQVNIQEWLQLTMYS
Experimental: as §1

[5] = biological target: T4, Human recombinant calpain I (Homo sapiens, UniProt P07384); assay: Calpain I inhibition assay; details: 2 μM
T4 construct: purchased Biomol
T4 sequence (P07384 1-714): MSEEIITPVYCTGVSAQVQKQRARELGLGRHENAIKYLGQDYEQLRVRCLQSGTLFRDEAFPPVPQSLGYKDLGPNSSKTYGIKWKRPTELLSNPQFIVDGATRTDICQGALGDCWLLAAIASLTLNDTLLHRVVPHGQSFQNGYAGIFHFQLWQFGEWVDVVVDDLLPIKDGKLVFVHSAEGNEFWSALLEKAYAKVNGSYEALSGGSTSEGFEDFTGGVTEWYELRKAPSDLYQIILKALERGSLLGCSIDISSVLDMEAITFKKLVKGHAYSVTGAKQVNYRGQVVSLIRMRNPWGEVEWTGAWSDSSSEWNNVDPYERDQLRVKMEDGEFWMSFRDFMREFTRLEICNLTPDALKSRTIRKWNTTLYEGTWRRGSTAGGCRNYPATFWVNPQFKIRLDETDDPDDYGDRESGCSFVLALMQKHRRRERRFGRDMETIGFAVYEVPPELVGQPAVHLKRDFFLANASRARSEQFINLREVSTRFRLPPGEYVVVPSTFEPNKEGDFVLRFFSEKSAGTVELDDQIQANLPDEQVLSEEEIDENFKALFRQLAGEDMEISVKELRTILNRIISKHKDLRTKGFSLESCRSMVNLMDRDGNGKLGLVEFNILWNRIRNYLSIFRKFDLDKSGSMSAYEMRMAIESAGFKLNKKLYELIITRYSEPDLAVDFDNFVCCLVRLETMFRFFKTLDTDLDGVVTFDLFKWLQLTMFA
T4 sequence (P04632 1-268 partner): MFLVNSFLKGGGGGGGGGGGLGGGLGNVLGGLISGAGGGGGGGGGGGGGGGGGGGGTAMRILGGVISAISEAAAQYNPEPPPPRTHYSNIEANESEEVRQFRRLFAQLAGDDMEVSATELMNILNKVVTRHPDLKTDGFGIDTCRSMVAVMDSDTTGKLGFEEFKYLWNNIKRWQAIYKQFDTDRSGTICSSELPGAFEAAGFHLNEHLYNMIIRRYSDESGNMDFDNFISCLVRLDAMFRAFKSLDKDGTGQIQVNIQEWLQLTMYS
Experimental: as §1

| SMILES | Group (pattern of caspase-2 inhibition curve) [1] | VDVAD-AMC cleavage by caspase-2 ([1]; recombinant caspase-2, FIG. 16) | inhibition of other caspases (cross-reaction) [2] | IC50 [1] | inhibition of granzyme B [3] | inhibition of calpain II [4] | inhibition of calpain I [5] |
| --- | --- | --- | --- | --- | --- | --- | --- |
| CC(=O)N[C@H](C(=O)N[C@@H](CC(=O)O)C(=O)N[C@H](C(=O)N[C@@H](C)C(=O)N[C@H](C=O)CC(=O)O)C(C)C)C(C)C [Compound 8, Ac-VDVAD-cho, reference compound] (Ac-VDVAD-aldehyde) | 2 | blocked | less than 20% | – | – | – | – |
| CC(=O)N[C@@H](CC(C)C)C(=O)N[C@@H](CC(=O)O)C(=O)N[C@@H](CCC(=O)O)C(=O)N[C@@H](C)C(=O)N[C@H](C=O)CC(=O)O [Compound 14, Ac-LDEAD(SEQ ID NO:7)-cho] (Ac-LDEAD-aldehyde) | 1 | – | – | 0.085 ± 0.006 µM | not strong inhibitors | not strong inhibitors | not strong inhibitors |
| CC(=O)N[C@H](C(=O)N[C@@H](CC(=O)O)C(=O)N[C@@H](CCC(=O)O)C(=O)N[C@@H](C)C(=O)N[C@H](C=O)CC(=O)O)C(C)C [Compound 20, Ac-VDEAD(SEQ ID NO:1)-cho] (Ac-VDEAD-aldehyde) | 1 | – | – | 0.085 ± 0.005 µM | not strong inhibitors | not strong inhibitors | not strong inhibitors |
